Test results: US8772502B2, “Alkylsulfinyl-substituted thiazolide compounds” (Romark Laboratories, L.C., priority 2010, dated 2014)
Where “and” joins values, the source holds several entries; their conditions need not be identical. Equal entries are not always repeated. Entries after “also recorded” stand apart in the source; their conditions may differ. Where two headings read alike, the source gives them in different places.

How the values were obtained:
[1] = test system: HCV replicon cell line, AVA5 (sub-genomic CON1, genotype 1b); experiment: Primary HCV replicon assay, antiviral activity (intracellular HCV RNA); format: cell-based
Method: (§1) Antiviral activity of test compounds was assessed in a 3-day assay using the stably-expressing HCV replicon cell line, AVA5 (sub-genomic CON1, genotype 1b) [Korba, B. E. et al. Antiviral Res. 77, 56-63 (2008); Blight et al., Science 290, 1972-1974 (2000)] maintained as sub-confluent cultures on 96-well plates as previously described [Okuse et al., Antiviral Research 65, 23-34 (2005)]. Antiviral activity was determined by blot hybridization analysis of intracellular HCV RNA (normalized to the level of cellular B-actin RNA in each culture sample) and cytotoxicity was assessed by neutral red dye uptake after 3 days of treatment. Additional studies were performed using Huh7 cells containing another HCV replicon, H/FL-Neo, a genotype 1a full length construct [Blight et al., J. Virol. 77, 3181-3190 (2003)]. For studies involving human serum, standard culture medium (which contains 10% fetal bovine serum) and assay conditions were maintained.
(§2) EC50, EC90 and CC50 values (±standard deviations [S.D.]) were calculated by linear regression analysis using data combined from all treated cultures (Korba, B. E. et al. Antiviral Res. 77, 56-63 (2008)). […] Selectivity index (S.I.) was calculated as CC50/EC90 for HBV assays and CC50/EC50 for HCV assays.

[2] = Primary HCV replicon assay, cytotoxicity (neutral red dye uptake); conditions: human
Method: as §1, §2

[3] = test system: HCV replicon cell line, AVA5; experiment: as above; conditions: primary assay; neutral red dye uptake after 3 days
Method: as §1, §2

J6/JFH-1 HCV = experiment: Infectious genotype 2a cell culture assay (HCV replication by RT-PCR); format: cell-based; conditions: for efficacy with regards to HCV replication: Huh7.5/JFH-1 HCV cell culture system; for inhibition of J6/JFH-1 HCV replication: 1 μM test concentration
Method: (§3) Genotype 2a antiviral assays were conducted as previously described [Lindenbach, B. D.; Rice, C. M. et al. Science, 309, 623-626 (2005)]. […] Cell viability was determined using the Calcein assay kit (Biotium, Inc. Hayward, Calif., USA). The alternate method for measuring cell cytotoxicity was via the Guava Technologies ViaCount assay (Millipore) The ViaCount Assay provides rapid and reliable determinations of viability and total cell count. It distinguishes viable and non-viable cells based on differential permeabilities of two DNA-binding dyes in the Guava ViaCount® Reagent. The nuclear dye stains only nucleated cells, while the viability dye brightly stains dying cells. This combination of dyes enables the Guava ViaCount Assay to distinguish viable, apoptotic, and dead cells. Debris is excluded from results based on negative staining with the nuclear dye.
HCV replication levels were determined by RT-PCR on RNA from cell culture supernatants. J6-infected Huh 7.5 cells were seeded in 12-well plates at a density of 2.0E^5 cells/well in 1.5 mL of DMEM supplemented with 10% FBS and 1% Pen/Strep. […] A positive control of IFN-α at concentrations of 10 IU/mL and 50 IU/mL, negative control wells containing mock incubations of DMEM with 1 uL and 10 uL (the same volume of the molecular compounds at 1 uM and 10 uM, respectively) of DMSO was included to rule out nonspecific effects of DMSO on the cells, and J6-infected with only DMEM were used as negative controls. A final control group consisted of un-infected Huh 7.5 cells, plated at the same time and density as the J6-infected cells on a separate plate. 48 hours and 120 hours after incubation with thiazolides, the media was collected and frozen, cells were washed 2× with PBS, and lysed in 500 uL of lysis buffer per well. Following lysis, RNA was extracted from the cells using the RNAqueous-4PCR Kit from Ambion, and the RNA concentration determined using the NanoDrop® machine. Reverse-transcription reactions produced 1.5 μg of cDNA per sample, which was then used for rt-PCR to quantify the HCV viral load in each sample. Analysis of the rt-PCR results generated the fold increases and decreases of the HCV viral load in comparison to untreated J6 cells.

[4] = test system: HCV replicon, H/FL-Neo, a genotype 1a full length construct; experiment: Secondary HCV replicon assay, genotype 1A, antiviral activity; format: cell-based
Method: as §1, §2

Huh 7.5 cells = experiment: Cytotoxicity in the infectious genotype 2a cell culture assay; format: cell-based
Method: as §3

[5] = test system: HCV replicon cell line, AVA5 (sub-genomic CON1, genotype 1b); experiment: Secondary HCV replicon assay, genotype 1B, antiviral activity; format: cell-based
Method: as §1, §2

[6] = Secondary HCV replicon assay, genotype 1B, cytotoxicity (neutral red dye uptake); conditions: human
Method: as §1, §2

[7] = Secondary HCV replicon assay, genotype 1A, cytotoxicity (neutral red dye uptake); conditions: human
Method: as §1, §2

[8] = cited from earlier work
[9] = test system: HCV replicon cell line, AVA5; experiment: Secondary HCV replicon assay, genotype 1B, cytotoxicity (neutral red dye uptake); conditions: secondary assay, genotype 1B; neutral red dye uptake
Method: as §1, §2

[10] = test system: Huh7 cells containing HCV replicon H/FL-Neo; experiment: Secondary HCV replicon assay, genotype 1A, cytotoxicity (neutral red dye uptake); conditions: secondary assay, genotype 1A; neutral red dye uptake
Method: as §1, §2

cellular esterases = experiment: Metabolic stability of acetate prodrugs under the cell assay conditions; format: in vitro ADME
cytochrome P450 enzymes = conditions: cited from earlier work
[11] = Hepatitis C virus, Ava5, primary assay, 2-fold depression of intracellular HCV RNA, read-out: EC50
[12] = Hepatitis C virus, Ava5, primary assay, 10-fold depression of intracellular HCV RNA, read-out: EC90
[13] = primary assay, 2-fold depression of intracellular HCV RNA, read-out: EC50
[14] = primary assay, 10-fold depression of intracellular HCV RNA, read-out: EC90

SMILES | EC50 [1, 11] | EC90 [1, 12] | CC50 [3] | efficacy with regards to HCV replication (J6/JFH-1 HCV) | inhibition of J6/JFH-1 HCV replication (J6/JFH-1 HCV; genotype G2a) | EC50 ([4]; Hepatitis C virus) | EC90 ([4]; Hepatitis C virus) | cytotoxic effect in Huh 7.5 cells (Huh 7.5 cells) | EC50 ([5]; Hepatitis C virus, Ava5) | EC90 ([5]; Hepatitis C virus, Ava5) | CC50 [9] | CC50 [10] | EC50 [1, 13] | EC90 [1, 14] | other results
CC(=O)Oc1ccccc1C(=O)Nc1nc([S+](C)[O-])cs1 (stereo not drawn) [Compound 1, 2-(4-(methylsulfinyl)thiazol-2-ylcarbamoyl)phenyl acetate] | – | – | – | – | – | – | – | – | – | – | – | – | – | – | EC50 ([1]; Hepatitis C virus, Ava5): > 10 µM; EC90 ([1]; Hepatitis C virus, Ava5): > 10 µM; CC50 at 3 days [2]: > 100 µM
C[S+]([O-])c1csc(NC(=O)c2ccccc2O)n1 (stereo not drawn) [Compound 2, 2-hydroxy-N-(4-(methylsulfinyl)thiazol-2-yl)benzamide] | 2 µM | 4.6 µM | 63 µM | demonstrated efficacy | shown to inhibit J6/JFH-1HCV replication | 2.8 µM | > 5 µM | Neither of these compounds showed a cytotoxic effect | 2.2 µM | 6.1 µM | – | – | – | – | relative potency, % of NTZ (J6/JFH-1 HCV; genotype G2a, at 0.1 μM): 88 % of NTZ; relative activity, % of NTZ (J6/JFH-1 HCV; genotype G2a, at 1 μM): 95 % of NTZ; cytotoxic effect in Huh 7.5 cells (Huh 7.5 cells; listed as analog 2): without being cytotoxic; CC50 at 3 days [6]: > 100 µM; CC50 at 3 days [7]: > 100 µM
CC(=O)Oc1ccccc1C(=O)Nc1ncc([N+](=O)[O-])s1 [NTZ, Nitazoxanide] | 0.21 µM | 0.98 µM | 31 µM | demonstrated efficacy | shown to inhibit J6/JFH-1HCV replication | 0.33 µM | 1.1 µM | without being cytotoxic; also recorded: Neither of these compounds showed a cytotoxic effect | 0.25 µM | 0.95 µM | 35 µM | 49 µM | – | – | detection in plasma ([8]; after oral 500 mg NTZ tablet): not detected
CS(=O)(=O)c1cnc(NC(=O)c2ccccc2O)s1 [RM4863] | – | – | 43 µM | – | – | – | – | – | – | – | > 10 µM | > 10 µM | 1.5 µM | 5.2 µM | EC50 [4]: 0.8 µM; EC90 [4]: 3.4 µM; EC50 [5]: 0.9 µM; EC90 [5]: 8.8 µM
CC(=O)Oc1ccccc1C(=O)Nc1ncc(S(C)(=O)=O)s1 [RM4864] | – | – | 20 µM | – | – | – | – | – | – | – | – | – | > 10 µM | > 10 µM | metabolic stability (hydrolysis to the parent phenolic drug) (cellular esterases): metabolically stable
O=C(Nc1ncc([N+](=O)[O-])s1)c1ccccc1O [TIZ, Tizoxanide] | 0.15 µM | 0.81 µM | 15 µM | – | – | 0.23 µM | 1 µM | – | 0.19 µM | 0.92 µM | 28 µM | 27 µM | – | – | part of an oral dose excreted in feces as TIZ ([8]; oral dose of NTZ, feces): Approximately two-thirds; Maximum serum concentrations of TIZ ([8]; oral, one 500 mg NTZ tablet (Alinia) with food): approximately 10 μg/mL and ~37 μM; elimination half-life of TIZ from plasma ([8]; plasma): approximately 1.5 hours; inhibition of cytochrome P450 enzymes (cytochrome P450 enzymes): does not inhibit
